This is an account of results in US12162878B2 (HINOVA PHARMACEUTICALS INC., priority 2018, dated 2024).

What all share (assay type): cell-based, human
The test system of one assay is CWR22RV1 cells. As to the kind of experiment: Inhibition of proliferation of CWR22RV1 cells (CCK-8). Particulars: Homo sapiens, CWR22Rv1, 144 h, 6 days. The gist of the method: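 Cells seeded at 1500/well, cultured overnight, then exposed to compounds in 3-fold dilutions (9 concentrations from 10 μM top final, 0.1% DMSO) for 6 days at 37 °C. Viability read by CCK-8 absorbance at 450 nm after 2.5 h; IC50 from dose-response inhibition fit.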

For a further assay, the system named is MCF-7 cells. As to the kind of experiment: Inhibition of proliferation of MCF-7 cells (CCK-8). Particulars: for IC50: Homo sapiens, MCF7, 144 h, 6 days, CCK-8. As to the method: • MCF-7 cell line (Cell Bank of Chinese Academy of Sciences, TCHu74) • FBS (Gibco, Cat. No. 10099-141) • 0.01M PBS (Biosharp, Cat. No. 162262) • RIPM1640 (Hyclone, Cat. No. 308090.01) • Penicillin-Streptomycin (Hyclone, Cat. No. SV30010) • Cell counting kit-8 (Signalway Antibody, Cat. No. CP002) • DMSO (Sigma, Cat. No. D5879) • Centrifuge Tube, 15 ml (Excell Bio, Cat. No. CS015-0001) • Cell Culture Dish, (Excell Bio, Cat. No. CS016-0128) • 96-well cell culture cluster (Corning, Cat. No. 3599) 3. Experimental Method
1) MCF-7 cells were subcultured in cell culture media, and the cells in good growth condition were seeded in a 96-well plate, 80 μL for each well, thus the number of cells per well was 1000, then the plate was cultured overnight in a 37° C., 5% CO2 cell incubator.
(§1) 2) The drug was prepared with dimethyl sulfoxide (DMSO) as a 10 mM stock solution. Prior to use, the solution was diluted 3 times with DMSO, and then diluted with a 3-fold gradient to obtain 9 concentration gradients. Then, each concentration of the compound was further diluted 200 times with the culture media (to ensure that DMSO concentration in the culture system was 0.1%), 2 repeat wells for each concentration. The diluted solution of each compound (20 μL) was added to the cell culture well (with a final concentration of 10 μM, 3.3 μM, 1.1 μM . . . ), and shaken gently for mixing.
In addition, three negative control wells containing only cells and three blank control wells containing only culture medium (20 μL DMSO diluted 200 times with culture medium being added to six wells) were included.
(§2) (1) After culturing for 6 days, 10 μL CCK-8 was added to each well and cultured for additional 2.5 h in a 37° C., 5% CO2 cell incubator.
(§3) (2) The absorbance (OD value) at 450 nm was measured with a multifunctional microplate reader.
(§4) (3) The data was analyzed by the Dose-response-inhibition equation in the software GraphPad Prism6, and the IC50 value was obtained.

In the next assay the test system is MDA-MB-231 cells. Put plainly: Inhibition of proliferation of MDA-MB-231 cells (CCK-8). Particulars: for IC50: Homo sapiens, 144 h, 6 days, CCK-8. As to the method: • MDA-MB-231 cell line (Cell Bank of Chinese Academy of Sciences, TCHu104) • FBS (Gibco, Cat. No. 10099-141) • 0.01M PBS (Biosharp, Cat. No. 162262) • RIPM1640 (Hyclone, Cat. No. 308090.01) • Penicillin-Streptomycin (Hyclone, Cat. No. SV30010) • Cell counting kit-8 (Signalway Antibody, Cat. No. CP002) • DMSO (Sigma, Cat. No. D5879) • Centrifuge Tube, 15 ml (Excell Bio, Cat. No. CS015-0001) • Cell Culture Dish, (Excell Bio, Cat. No. CS016-0128) • 96-well cell culture cluster (Corning, Cat. No. 3599) 3. Experimental Method
1) MDA-MB-231 cells were subcultured in cell culture media, and the cells in good growth condition were seeded in a 96-well plate, 80 μL for each well, thus the number of cells per well was 1500, then the plate was cultured overnight in a 37° C., 5% CO2 cell incubator.
as §1, with “mixing. In addition, three negative control wells containing only cells and three blank control wells containing only culture medium (20 μL DMSO diluted 200 times with culture medium being added to six wells) were included.” for “mixing.”
as §2, §3, §4

For orientation: IC50 means the point on the concentration scale where inhibition reaches its midpoint. A low value points to greater potency in that assay.

Regarding `[2H]C([2H])([2H])n1cc(-c2cc(S(=O)(=O)CC)ccc2N2CCC3(CC3)C2)c2cc[nH]c2c1=O` [Compound 55, 4-(5(ethylsulfonyl)-2-(5-aza-spiro[2.4]heptan-5-yl)phenyl)-6-trideuteromethyl-1H-pyrrolo[2,3-c]pyridin-7(6H)-one], the IC50 in the assay with CWR22RV1 cells was found to be 21 nM; in the assay with MCF-7 cells, 100 nM; in the assay with MDA-MB-231 cells it was 749 nM.
`[2H]C([2H])([2H])n1cc(-c2cc(S(C)(=O)=O)ccc2N2CCC3(CC2)CC3(F)F)c2cc[nH]c2c1=O` [Compound 184, 4-(2-(1,1-difluoro-6-aza-spiro[2.5]octan-6-yl)-5-(methylsulfonyl)phenyl)-6-trideuteromethyl-1H-pyrrolo[2,3-c]pyridin-7(6H)-one] had an IC50 with CWR22RV1 cells of 8.1 nM. Further, in the assay with MCF-7 cells, the “inhibitory action on MCF-7 cells (in words)” value was “effective inhibitory action” and the IC50 was 14 nM. Moreover, in the assay on MDA-MB-231 cells, the “inhibitory action on MDA-MB-231 cells (in words)” value is given as “effective inhibitory action” and it took 26 nM to reach half-maximal inhibition (IC50).
Turning to `[2H]C([2H])([2H])n1cc(-c2cc(NS(=O)(=O)CC)ccc2N2CCC3(CC2)CC3)c2cc[nH]c2c1=O` [Compound 41], the figures for the IC50 in the assay on CWR22RV1 cells, in the assay with MCF-7 cells and in the assay with MDA-MB-231 cells were 5 nM, 54 nM and 7540 nM, respectively.
In turn, `[2H]C([2H])([2H])n1cc(-c2cc(S(C)(=O)=O)c(F)cc2N2CCC3(CC2)CC3(F)F)c2cc[nH]c2c1=O` [Compound 219, 4-(2-(1,1-difluoro-6-aza-spiro[2.5]octan-6-yl)-4-fluoro-5-(methylsulfonyl)phenyl)-6-trideuteromethyl-1H-pyrrolo[2,3-c]pyridin-7(6H)-one] came in with an IC50 in the assay with CWR22RV1 cells of 7.1 nM.
